The data set can be described thus: in vitro. As to conditions: human, hela cells, % viability.

In the case of `O=C(C1c2ccccc2Oc2ccccc21)N1C2CCC1CC(O)(c1ccco1)C2` (centres unmarked) [CBK286169], the viability (as a rule, a read-out of living cells in per cent, often relative to untreated cells) at 28.5 h, 10 µM worked out at 93.8%.
Under `COc1cccc(CN2CCN(CC(=O)N3CCCC3)[C@@H](C)C2)c1` [CBK286171] stands 78.1%; under `CC(C)[C@H]1CN(Cc2ccccc2F)CCN1C(=O)Cn1ncc2ccccc2c1=O` [CBK286172], 82.2%.
With `CC[C@@H](Cn1ncc2ccccc2c1=O)NC(=O)CC1c2ccccc2Oc2ccccc21` [CBK286174], the viability at 28.5 h, 10 µM turned out to be 89.5%.
Take `O=c1oc2ccccc2n1C1CCN(Cc2nc3ccccc3n2Cc2ccccc2)CC1` [CBK286176]: the viability at 28.5 h, 10 µM was 102%.
Take `Cc1nc2c(c(N3CCN(c4ccc(O)cc4)CC3)n1)CN(Cc1ccccc1)CC2` [CBK286177]: the viability at 28.5 h, 10 µM is 90.2%.
The same measure for `O=c1n(Cc2ccccc2F)nc2nnc(-c3ccccc3)c(-c3ccccc3)n12` [CBK286179]: 80.9%; for `COc1ccc(Cn2nc3nnc(-c4ccccc4)c(-c4ccccc4)n3c2=O)cc1` [CBK286180]: 88.8%.
As to `COc1ccc(Cn2nc3nnc(-c4ccc(F)cc4)c(-c4ccc(F)cc4)n3c2=O)cc1` [CBK286183], the viability at 28.5 h, 10 µM was determined as 107%.
With `COc1ccccc1Cn1nc2nnc(-c3ccc(F)cc3)c(-c3ccc(F)cc3)n2c1=O` [CBK286184], the viability at 28.5 h, 10 µM came to 97.7%.
`COc1ccccc1Cn1nc2nnc(-c3ccccc3)c(-c3ccccc3)n2c1=O` [CBK286185]: the viability at 28.5 h, 10 µM stood at 88.6%.
With `Cc1nc2cc(-c3nccn3C)nn2c(N2CCN(c3ccc4c(c3)OCCO4)CC2)c1C` [CBK286186], the viability at 28.5 h, 10 µM is 90.4%.
`COc1ccc(N2CCN(c3cc(C)nc4cc(-c5nccn5C)nn34)CC2)cc1` [CBK286187]: the viability at 28.5 h, 10 µM is 87.8%.
`Cc1cc(N2CCN(c3ccc(O)cc3)CC2)n2nc(-c3nccn3C)cc2n1` [CBK286188]: the viability at 28.5 h, 10 µM stood at 91.2%.
Under `COc1cc2c(cc1OC)C1c3ccccc3NC(c3ccc(F)cc3)N1CC2` (centres unmarked) [CBK286191] stands 102%.
Consider `COc1cc2c(cc1OC)C1c3ccccc3N(Cc3ccccc3)C(=O)N1CC2` (centres unmarked) [CBK286192], for which the viability at 28.5 h, 10 µM is 86.8%.
As to `COc1cc2c(cc1OC)C1c3ccccc3NC(c3ccc(C)cc3)N1CC2` (centres unmarked) [CBK286195], the viability at 28.5 h, 10 µM is 72.7%.
With `Fc1ccc(CN(Cc2ccco2)C2CCN(c3ccc4c(c3)OCO4)CC2)cc1` [CBK286197], the viability at 28.5 h, 10 µM is 88.7%.
As to `COCC(=O)N1CCc2sccc2C1c1ccc(NC(=O)c2ccco2)cc1` (centres unmarked) [CBK286200], the viability at 28.5 h, 10 µM came to 95.6%.
Consider `O=C(CN1C(=O)[C@@H]2CCCN2c2ncccc21)NC(c1ccccc1)c1ccccc1` [CBK286205], for which the viability at 28.5 h, 10 µM was 121%.
With `O=C(CN1C(=O)[C@H]2CCCN2c2ncccc21)NCCc1c[nH]c2ccccc12` [CBK286206], the viability at 28.5 h, 10 µM is 107%.
In the case of `O=C(CCc1ccccc1)N1CCCC1c1cccc(Cc2ccccc2F)n1` (centres unmarked) [CBK286208], the viability at 28.5 h, 10 µM was found to be 118%.
In the case of `O=S(=O)(c1ccc(F)cc1)N1CCCC1c1cccc(Cc2cccc(F)c2)n1` (centres unmarked) [CBK286209], the viability at 28.5 h, 10 µM was 93.9%.
`O=C(Cc1ccc(F)cc1)N1CCCC(c2nccnc2-c2cccc(C(F)(F)F)c2)C1` (centres unmarked) [CBK286210]: the viability at 28.5 h, 10 µM was 99.8%.
Regarding `O=C(COc1ccc(F)cc1)N1CCCC1c1cccc(Cc2ccccc2)n1` (centres unmarked) [CBK286214], the viability at 28.5 h, 10 µM stood at 105%.
Under `O=C(C1CCCC1)N1CCCC(c2nccnc2-c2cccc(C(F)(F)F)c2)C1` (centres unmarked) [CBK286221] stands 110%.
Consider `O=C(c1cccnc1)N1CCC(c2cccc(Cc3ccc(C(F)(F)F)cc3)n2)CC1` [CBK286222], for which the viability at 28.5 h, 10 µM was found to be 95.4%.
For `O=C(Cc1ccccn1)N1CCC(c2cccc(Cc3ccc(C(F)(F)F)cc3)n2)CC1` [CBK286224], the viability at 28.5 h, 10 µM was found to be 101%.
As to `COc1ccc(Cc2cccc(C3CCN(C(=O)Cc4ccc(F)cc4)CC3)n2)cc1` [CBK286225], the viability at 28.5 h, 10 µM was determined as 95.6%.
Regarding `COc1ccccc1Cc1cccc(C2CCN(C(=O)Cc3c[nH]c4ccccc34)CC2)n1` [CBK286226], the viability at 28.5 h, 10 µM was found to be 92.8%.
On to `COc1ccccc1Cc1cccc(C2CCN(CC(=O)Nc3nccs3)CC2)n1` [CBK286227], for which the viability at 28.5 h, 10 µM is 95.1%.
Under `O=S(=O)(c1ccc(F)cc1)N1CCCC1c1cccc(Cc2ccccc2)n1` (centres unmarked) [CBK286231] stands 97.3%; under `COc1ccc(CC(=O)N2CCC(c3cccc(Cc4ccccc4C)n3)CC2)cc1` [CBK286232], 93.5%; under `COc1ccc(CC(=O)N2CCCC2c2cccc(Cc3ccc(F)cc3)n2)cc1` (centres unmarked) [CBK286233], 89.1%.
Under `COc1ccccc1Cc1cccc(C2CCN(C(=O)c3ccc(F)cc3)CC2)n1` [CBK286237] stands 108%; under `COc1ccccc1Cc1cccc(C2CCCN2C(=O)CCc2ccc(F)cc2)n1` (centres unmarked) [CBK286238], 101%.
Take `COc1ccccc1Cc1cccc(C2CCCN2C(=O)c2ccc(F)cc2)n1` (centres unmarked) [CBK286239]: the viability at 28.5 h, 10 µM stood at 99.1%.
As to `COc1ccccc1Cc1cccc(C2CCN(C(=O)Cc3ccccc3)CC2)n1` [CBK286240], the viability at 28.5 h, 10 µM amounted to 88.1%.
Regarding `Cc1cccc(-c2nccnc2C2CCCN(C(=O)COc3ccc(F)cc3)C2)c1` (centres unmarked) [CBK286241], the viability at 28.5 h, 10 µM turned out to be 88.1%.
In the case of `Cn1cc(CN2CCCC(c3cccc(Cc4ccc(Cl)cc4)n3)C2)cn1` (centres unmarked) [CBK286242], the viability at 28.5 h, 10 µM is 81.8%.
Consider `CCC(=O)N1CCCC1c1nc(C)c2c(n1)N(CCc1ccccc1OC)CCC2` (centres unmarked) [CBK286246], for which the viability at 28.5 h, 10 µM is 95.4%.
The same measure for `O=C(Cn1cc(C(=O)NC2CCCC2)ccc1=O)NCC1(c2ccccc2)CCCC1` [CBK286248]: 94.7%.
On to `O=S(=O)(c1ccc(F)cc1)N1CCCC1c1cccc(Cc2ccc(F)cc2)n1` (centres unmarked) [CBK286249], for which the viability at 28.5 h, 10 µM is 88%.
Under `CCn1cc(CN2CCOC(c3cccc(-c4ccc(OC)cc4)n3)C2)c(C)n1` (centres unmarked) [CBK286250] stands 84.4%; under `COc1cccc(-c2cnc(N(C)C)nc2C2CCCN2Cc2ccc3ncccc3c2)c1` (centres unmarked) [CBK286251], 85.5%; under `Cc1cc(C)nc(N2CCC(CC(=O)N3CCCCC3CN3CCCC3)CC2)n1` (centres unmarked) [CBK286254], 95.6%.
Turning to `CCC(c1cccc(OC)c1)N(C)C(=O)CC1CCN(c2nc(C)cc(C)n2)CC1` (centres unmarked) [CBK286255], the viability at 28.5 h, 10 µM was 99.7%.
Under `Cc1nc(C2(O)CCCN(C3CCCC3)CC2)sc1COc1ccc(F)c(F)c1` (centres unmarked) [CBK286259] stands 89.7%; under `O=C(c1sc2ccccc2c1C1CCN(Cc2ccccc2F)C1)N1CCOCC1` (centres unmarked) [CBK286260], 103%; under `CC(CN(C)C(=O)CC1CCN(C(=O)CC2CCCCC2)CC1)c1ccccc1` (centres unmarked) [CBK286268], 97.9%.
Under `NC(=O)C1(Cc2cccc(-c3cccs3)c2)CCN(C(=O)Cc2ccccc2)CC1` [CBK286272] stands 84.8%.
Turning to `CNC(=O)C1(Cc2ccccc2-c2ccccc2)CCN(C(=O)Cc2ccc(C)cc2)CC1` [CBK286274], the viability at 28.5 h, 10 µM amounted to 88.4%.
For the compound `COCc1ccc(C(=O)N2CCC(Cc3ccccc3-c3cccs3)(C(N)=O)CC2)cc1` [CBK286276], the viability at 28.5 h, 10 µM is 102%.
Turning to `COc1ccc(CN2CCC(Cc3ccccc3-c3cccc(F)c3)(C(N)=O)CC2)cc1` [CBK286277], the viability at 28.5 h, 10 µM came out at 99.8%.
Turning to `COc1cccc(C(NC(=O)c2cc(CN3CCOCC3)c(C)o2)c2ccccc2)c1` (centres unmarked) [CBK286279], the viability at 28.5 h, 10 µM worked out at 93.4%.
Under `O=C1CCCC[C@@H]2[C@@H](N1)[C@H](c1ccccc1)CN2Cc1ccc2ccccc2n1` [CBK286281] stands 93.1%; under `O=C(Cc1cccs1)N1CCC(c2nnc(-c3ccccc3)c(-c3ccccc3)n2)CC1` [CBK286283], 98.8%; under `COc1ccc(OC)c(C(O)CN2CCCC(C(=O)N3CCCCCC3)C2)c1` (centres unmarked) [CBK286286], 87.5%.
With `O=C(c1ccccc1)N1C[C@H](c2ccc(F)cc2)[C@H]2CN(Cc3ccccc3F)CC[C@H]21` [CBK286289], the viability at 28.5 h, 10 µM came out at 90.1%.
Regarding `COc1ccc(CN2CC[C@@H]3[C@H](C2)[C@@H](c2ccc(F)cc2)CN3C(=O)c2ccccc2)cc1` [CBK286290], the viability at 28.5 h, 10 µM is 92.3%.
`O=C(NCc1nnc(-c2cccs2)o1)c1ccccc1-c1ccccc1` [CBK286293]: the viability at 28.5 h, 10 µM came out at 112%.
Consider `O=C(NCc1nnc(-c2cccs2)o1)C(c1ccccc1)c1ccccc1` [CBK286294], for which the viability at 28.5 h, 10 µM worked out at 92.6%.
Turning to `O=C(NCc1nnc(-c2cccs2)o1)c1cccc(-c2ccc(F)cc2)c1` [CBK286296], the viability at 28.5 h, 10 µM was 86.9%.
For `OC1CCN(Cc2c([C@H]3CCCO3)[nH]c3ncccc23)CC1` [CBK286301], the viability at 28.5 h, 10 µM came out at 110%.
For the compound `Cc1[nH]c(=O)[nH]c(=O)c1CC(=O)N1CCc2ncc(Cl)cc2C1` [CBK286302], the viability at 28.5 h, 10 µM is 101%.
`CC(C)C(=O)Nc1ccc2nc(-c3ccoc3)c(-c3ccoc3)nc2c1` [CBK286304]: the viability at 28.5 h, 10 µM was determined as 96.9%.
Take `CC(C)N1CC(C(=O)N(C)C)C2(CCc3ccccc3C2O)C1` (centres unmarked) [CBK286305]: the viability at 28.5 h, 10 µM was 89.1%.
Under `O=C1NC2(CCN(C(=O)Cc3ccc(-c4ccccc4)cc3)CC2)Nc2ccccc21` [CBK286309] stands 101%.
For the compound `O=C(NCc1cccs1)C1(Cc2ccccc2-c2coc3ccccc23)CCOCC1` [CBK286310], the viability at 28.5 h, 10 µM is 108%.
For the compound `O=C1NC2(CCN(C(=O)CCc3ccc(-c4ccccc4)o3)CC2)Nc2ccccc21` [CBK286316], the viability at 28.5 h, 10 µM came out at 106%.
`Cc1sc2nc(Cc3ccccc3)n(C3CCN(C(=O)c4ccco4)CC3)c(=O)c2c1C` [CBK286317]: the viability at 28.5 h, 10 µM turned out to be 97.3%.
Turning to `CC1CCCCN1C(=O)CN1C(=O)[C@H]2CCCN2C(=O)c2ccccc21` (some centres unmarked) [CBK286320], the viability at 28.5 h, 10 µM is 99.4%.
Consider `COc1ccc(CNC(=O)CN2C(=O)[C@@H]3CCCN3C(=O)c3ccccc32)cc1` [CBK286322], for which the viability at 28.5 h, 10 µM stood at 89.7%.
For `OC(CN1CCC(O)(c2ccc(C(F)(F)F)cc2)CC1)c1ccccc1` (centres unmarked) [CBK286323], the viability at 28.5 h, 10 µM came to 102%.

These data come from PMC12040169 (PLOS Biology, 2025).
